The source of these data is paper PMC7985570 (Signal Transduction and Targeted Therapy, 2021).

Read-outs that look alike come from different tables or passages of the source.

In data set [1] the test system is SARS-CoV-2 S-G614 pseudovirus. To be noted: for EC50: read-out: S-G614 Pseudovirus EC50.
A short description of another data set: in vitro. To be noted: human, 293T-ACE2 CC50.
Data set [2] relates to SARS-CoV-2 S-G614 pseudovirus. Briefly: organism not typed. To be noted: 293T/ACE2, read-out: S-G614 Pseudovirus EC50.
Data set [3] relates to SARS-CoV-2 S-mediated membrane fusion of 293T-ACE2 cells. The class given is cell-based.
Data set [4] deals with S-G614 pseudovirus. Briefly: microbe, parasite or virus in culture. The class given is cell-based, SARS-CoV-2. To be noted: for EC50: Pseudovirus, 293T/ACE2, read-out: 293T-ACE2 Cells EC50 BAPTA-AM (0μM).
The subject of a further data set is native SARS-CoV-2. The class given is cell-based.
The target in data set [5] is receptor-binding domain (RBD) in the S protein of SARS-CoV-2 (Severe acute respiratory syndrome coronavirus 2, UniProt P0DTC2).
Data set [6] concerns S-G614 pseudovirus. The data set is described as follows: microbe, parasite or virus in culture. The class given is cell-based. Conditions: read-out: EC50 against S-G614 pseudovirus in all three cell lines.
A further data set has as its system VSV-G pseudovirus. Briefly: microbe, parasite or virus in culture. The class given is cell-based. Conditions: read-out: VSV-G Pseudovirus EC50.
The test system of a further data set is SARS-CoV-2. To be noted: cited from earlier work.

As for `COc1c2c(cc3c1-c1c(cc4c(c1OC)OCO4)C[C@H](C)[C@H](C)C3)OCO2` [SC8, Schisandrin C], the “SI (cytotoxicity)” value in data set [1] (human) is given as “>3.43”. Further, the CC50 in “in vitro” is more than 50 µM. Further, the EC50 in data set [2] was determined as 14.6 µM.
In the case of `COc1ccc2cc1Oc1ccc(cc1)C[C@H]1c3cc(c(OC)cc3CCN1C)Oc1c(OC)c(OC)c(OC)c3c1[C@H](C2)N(C)CC3` [SC161, Hernandezine], the “decrease of fusion rates” value in data set [3] is given as “approximately 90%”. Moreover, in the data set on S-G614 pseudovirus [4], the EC50 is 0.111 µM. Further, in the data set on native SARS-CoV-2, the “Virus-induced cytopathogenic effect and viral RNA levels” value is reported as “partially inhibited”; the “relative viral RNA levels” value is given as 70.27%. In data set [5], the “interaction with RBD” value is listed as “negligible”. For the same molecule, the EC50 with S-G614 pseudovirus [6] is less than 10 µM.
Take `COc1cc2c(cc1OC)[C@@H](Cc1ccc(Oc3cc(C[C@@H]4c5cc(OC)c(OC)cc5CCN4C)ccc3O)cc1)N(C)CC2` [SC184, Dauricine]: the EC50 was more than 50 µM in the data set with VSV-G pseudovirus (Pseudovirus) and 1.43 µM in [2]. For the same molecule, the “SI (cytotoxicity)” value in data set [1] (human) is recorded as “>34.99”. The same molecule registered a CC50 in the data set “in vitro” of more than 50 µM.
Regarding `COc1cc2c(cc1O)[C@@H](Cc1ccc(O)c(Oc3ccc(C[C@@H]4c5cc(OC)c(OC)cc5CCN4C)cc3)c1)N(C)CC2` [SC187, Daurisoline], the concentration for a half-maximal effect (EC50) in the data set with VSV-G pseudovirus is more than 50 µM. This molecule also registered a CC50 with 293T-ACE2 cells of more than 50 µM. Besides, in data set [1], the “SI (cytotoxicity)” value is given as “>20.13” and the EC50 turned out to be 2.48 µM.
In the case of `COc1ccc2cc1Oc1ccc(cc1)CC1c3cc(c(OC)cc3CCN1C)Oc1c(O)c(OC)cc3c1C(C2)N(C)CC3` (stereo not shown) [SC181, Isofangchinoline], the half-maximal effective concentration (EC50) in the data set with VSV-G pseudovirus stood at 3.95 µM. The molecule also came in with a CC50 with 293T-ACE2 cells of more than 50 µM. For the same molecule, in data set [1], the “SI (cytotoxicity)” value is recorded as “>45.00” and the 50% effective concentration (EC50) stood at 1.11 µM.
Taken in the same sequence, the figures for `Cl.N=c1ccn2c(n1)O[C@H]1[C@H](O)[C@@H](CO)O[C@H]12` [SC33, Ancitabine (hydrochloride)] were more than 50 µM, more than 50 µM, “>4.94” and 10.1 µM.
For the molecule `COc1ccc2cc1Oc1ccc(cc1)C[C@H]1c3cc(c(OC)cc3CCN1C)Oc1c(OC)c(OC)cc3c1[C@H](C2)N(C)CC3` [SC182, Tetrandrine], the concentration for a half-maximal effect (EC50) is 27.9 µM in the data set with VSV-G pseudovirus (Pseudovirus), less than 10 µM with S-G614 pseudovirus [6] and 0.9 µM in [2]. For the same molecule, the “decrease of fusion rates” value in data set [3] was “approximately 90%”. In data set [1] (human), the “SI (cytotoxicity)” value is recorded as “>55.80”. For the same molecule, in “in vitro”, the CC50 is more than 50 µM.
Turning to Aloperine [SC96], in the data set with VSV-G pseudovirus, the concentration for a half-maximal effect (EC50) is 10.8 µM. Moreover, the CC50 in the data set with 293T-ACE2 cells is more than 50 µM. For the same molecule, in [1], the “SI (cytotoxicity)” value is “>176.87” and the EC50 was 0.28 µM.
Regarding `CC1CCN(CC(O)COc2cccc(OCC(O)CN3CCC(C)CC3)c2)CC1` (stereo not shown) [SC171, 3,3'-(1,3-phenylenebis(oxy))bis(1-(4-methylpiperidin-1-yl)propan-2-ol)], in the data set with S-G614 pseudovirus [4], the 50% effective concentration (EC50) was found to be 3.83 µM. Moreover, in the data set on native SARS-CoV-2, the “Virus-induced cytopathogenic effect and viral RNA levels” value is “partially inhibited”; the “relative viral RNA levels” value turned out to be 43.55%. Further, the “interaction with RBD” value in [5] is given as “negligible”. Besides, the EC50 with S-G614 pseudovirus [6] was less than 10 µM.
Consider `COc1cc2c(cc1OC)[C@@H](Cc1ccc(O)c(Oc3cc4c(cc3OC)CCN(C)[C@@H]4Cc3ccc(O)cc3)c1)N(C)CC2` [SC186, Liensinine], for which, in the data set with VSV-G pseudovirus, the concentration giving a half-maximal response (EC50) was more than 50 µM. In the data set on 293T-ACE2 cells, the CC50 was more than 50 µM. In [1], the “SI (cytotoxicity)” value is given as “>49.80” and the 50% effective concentration (EC50) came to 1 µM.
With `COc1ccc2cc1Oc1ccc(cc1)C[C@H]1c3c(cc4c(c3Oc3cc5c(cc3OC)CCN(C)[C@@H]5C2)OCO4)CCN1C` [SC9, Cepharanthine], the “decrease of fusion rates” value in [3] is listed as “approximately 90%”. Besides, the EC50 in the data set with S-G614 pseudovirus [4] is 0.315 µM; in the data set with S-G614 pseudovirus [6], less than 10 µM. The “Virus-induced cytopathogenic effect and viral RNA levels” value in the data set on native SARS-CoV-2 was “partially inhibited”. In addition, in the data set on native SARS-CoV-2, the “relative viral RNA levels” value was 0.08%. Besides, the “interaction with RBD” value in data set [5] is given as “negligible”.
`CC(N)C12CC3CC(CC(C3)C1)C2.Cl` (stereo not shown) [SC16, Rimantadine (hydrochloride)] gave a CC50 in the data set on 293T-ACE2 cells of more than 50 µM. For the same molecule, in data set [1], the “SI (cytotoxicity)” value was “>1.45” and the EC50 worked out at 34.6 µM.
Take Berbamine hydrochloride [SC183]: the results for the concentration for a half-maximal effect (EC50) (in the data set on VSV-G pseudovirus; in data set [1]) were more than 50 µM and 1.28 µM, respectively. The CC50 in the data set with 293T-ACE2 cells (human) was more than 50 µM. In addition, in [1] (human), the “SI (cytotoxicity)” value is “>38.94”.
As for `COc1ccc(C[C@@H]2c3cc(Oc4cc(C[C@@H]5c6cc(O)c(OC)cc6CCN5C)ccc4O)c(OC)cc3CCN2C)cc1` [SC188, Isoliensinine], the EC50 was found to be 7.02 µM with VSV-G pseudovirus (Pseudovirus) and 1.29 µM in data set [2]. In addition, the “SI (cytotoxicity)” value in data set [1] (human) is “>38.88”. In addition, in “in vitro”, the CC50 was more than 50 µM.
Taken in the same sequence, the figures for `CCOC(=O)[C@H]1O[C@@H]1C(=O)N[C@@H](CC(C)C)C(=O)NCCC(C)C` [Aloxistatin, aloxistatin, reference compound] were more than 50 µM, 0.923 µM, “>54.17” and more than 50 µM.
`O=C1Nc2ccc(Cl)cc2[C@@](C#CC2CC2)(C(F)(F)F)O1` [SC102, Efavirenz]: the figures for the EC50 (in the data set on VSV-G pseudovirus (Pseudovirus); in data set [2]) were 0.000723 µM and 0.00038 µM, respectively. The “SI (cytotoxicity)” value in data set [1] (human) was “>130890”. The CC50 in the data set “in vitro” was more than 50 µM.
Regarding `Cc1cccc2c3c(ccc12)C1=C(C(=O)C3=O)[C@@H](C)CO1` [SC24, Dihydrotanshinone I], in data set [1] (human), the “SI (cytotoxicity)” value amounted to 0.90. Moreover, the CC50 in the data set “in vitro” came out at 33.5 µM. In addition, the concentration giving a half-maximal response (EC50) in data set [2] was determined as 15.7 µM.
As for `Cc1nnc(C(=O)NC(C)(C)c2nc(C(=O)NCc3ccc(F)cc3)c([O-])c(=O)n2C)o1.[K+]` [SC109, Raltegravir (potassium salt)], the EC50 with VSV-G pseudovirus stood at 0.0359 µM. The molecule also displayed a CC50 with 293T-ACE2 cells of more than 50 µM. Besides, in data set [1], the “SI (cytotoxicity)” value was “>247647” and the EC50 turned out to be 0.0002 µM.
Take `CCOC(=O)C1=C(COCCN)NC(C)=C(C(=O)OC)C1c1ccccc1Cl` (stereo not shown) [amlodipine]: the viral infection entry with SARS-CoV-2 is recorded as “reduced viral infection”.
Turning to `COc1ccc(C[C@@H]2c3cc(Oc4cc(C[C@@H]5c6cc(OC)c(OC)cc6CCN5C)ccc4O)c(OC)cc3CCN2C)cc1` [SC185, Neferine], the concentration for a half-maximal effect (EC50) in the data set on VSV-G pseudovirus (Pseudovirus) is more than 50 µM; in the data set on S-G614 pseudovirus [4] it was 0.946 µM; with S-G614 pseudovirus [6], less than 10 µM; in [2], 0.95 µM. For the same molecule, the “decrease of fusion rates” value in data set [3] was “approximately 90%”. The “Virus-induced cytopathogenic effect and viral RNA levels” value in the data set on native SARS-CoV-2 is “partially inhibited”. In the data set on native SARS-CoV-2, the “relative viral RNA levels” value came to 76.98%. The “interaction with RBD” value in [5] is on record as “negligible”. Besides, the CC50 in the data set “in vitro” was more than 50 µM.
In the case of `CC(=O)OCOC(=O)CN(CC(=O)OCOC(C)=O)c1ccccc1OCCOc1ccccc1N(CC(=O)OCOC(C)=O)CC(=O)OCOC(C)=O` [BAPTA-AM, reference compound], in the data set with S-G614 pseudovirus [4], the “SARS-CoV-2 pseudovirus infection on intracellular Ca2+ chelation” value is reported as “significantly diminished”.
With `COc1ccc2cc1Oc1ccc(cc1)C[C@H]1c3cc(c(OC)cc3CCN1C)Oc1c(O)c(OC)cc3c1[C@H](C2)N(C)CC3` [SC180, Fangchinoline], the concentration giving a half-maximal response (EC50) in the data set on VSV-G pseudovirus (Pseudovirus) came out at 4.39 µM; in [2], 0.94 µM. The “SI (cytotoxicity)” value in [1] (human) is recorded as “>53.39”. Besides, the CC50 in “in vitro” is more than 50 µM.
